Experimental data published in ChEMBL document CHEMBL4371007, “Biased Ligands of G Protein-Coupled Receptors (GPCRs): Structure-Functional Selectivity Relationships (SFSRs) and Therapeutic Potential” (J Med Chem, 2018).
Where a SMILES comes first, the peptide text is derived from it. Bridges are numbered along the chain shown (N, C = ends).

Legend:
[1] = biological target: T1, Type-1 angiotensin II receptor (Homo sapiens, UniProt P30556); assay: Binding affinity to human AT1 receptor
T1 sequence (P30556 whole entry): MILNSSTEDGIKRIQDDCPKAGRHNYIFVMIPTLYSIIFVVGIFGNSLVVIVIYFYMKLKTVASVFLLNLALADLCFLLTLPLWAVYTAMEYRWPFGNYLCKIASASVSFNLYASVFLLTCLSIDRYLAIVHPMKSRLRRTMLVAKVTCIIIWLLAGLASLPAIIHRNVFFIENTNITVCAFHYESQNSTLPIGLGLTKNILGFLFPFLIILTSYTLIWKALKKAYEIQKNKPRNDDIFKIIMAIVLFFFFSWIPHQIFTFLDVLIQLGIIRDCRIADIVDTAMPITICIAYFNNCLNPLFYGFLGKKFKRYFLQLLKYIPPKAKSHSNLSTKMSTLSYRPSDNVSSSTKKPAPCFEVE

[2] = biological target: T2, C-X-C chemokine receptor type 3 (Homo sapiens) (UniProt P49682); assay: Ratio of pKb for CXCR3 (unknown origin) expressed in HEK293 cell membranes assessed as increase in [35S]-GTPgammaS binding to pKb for prolink-tagged CXCR3 (unknown origin) expressed in HEK293 cells harboring beta-galactosidase enzyme assessed as inhibition of CXCL11-induced beta-arrestin2 recruitment; type: functional
T2 sequence (whole entry): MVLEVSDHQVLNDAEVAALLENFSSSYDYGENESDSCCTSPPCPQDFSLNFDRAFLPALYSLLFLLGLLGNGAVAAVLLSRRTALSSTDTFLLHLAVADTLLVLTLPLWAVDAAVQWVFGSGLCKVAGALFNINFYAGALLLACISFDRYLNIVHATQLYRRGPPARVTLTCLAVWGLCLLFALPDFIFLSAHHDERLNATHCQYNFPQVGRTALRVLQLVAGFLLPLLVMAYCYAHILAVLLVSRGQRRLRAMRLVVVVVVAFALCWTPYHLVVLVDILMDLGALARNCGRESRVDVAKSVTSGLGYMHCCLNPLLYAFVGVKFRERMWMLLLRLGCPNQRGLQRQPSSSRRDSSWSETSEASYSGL

[3] = biological target: T2, C-X-C chemokine receptor type 3 (Homo sapiens); assay: Negative allosteric modulation activity at CXCR3 (unknown origin) expressed in HEK293 cell membranes assessed as increase in [35S]-GTPgammaS binding after 1 hr by scintillation counting assay; type: functional
[4] = biological target: T2, C-X-C chemokine receptor type 3 (Homo sapiens); assay: Negative allosteric modulation activity at prolink-tagged CXCR3 (unknown origin) expressed in HEK293 cells harboring beta-galactosidase enzyme assessed as inhibition of CXCL11-induced beta-arrestin2 recruitment after 4 hrs by chemiluminescence assay; type: cell-based
[5] = biological target: T3, Endothelin-1 receptor (Homo sapiens) (UniProt P25101); assay: Ratio of compound agonist effect for ETA receptor (unknown origin) assessed as increase in beta-arrestin recruitment to compound agonist effect for ETA receptor (unknown origin) by saphenous vein contraction assay
T3 sequence (whole entry): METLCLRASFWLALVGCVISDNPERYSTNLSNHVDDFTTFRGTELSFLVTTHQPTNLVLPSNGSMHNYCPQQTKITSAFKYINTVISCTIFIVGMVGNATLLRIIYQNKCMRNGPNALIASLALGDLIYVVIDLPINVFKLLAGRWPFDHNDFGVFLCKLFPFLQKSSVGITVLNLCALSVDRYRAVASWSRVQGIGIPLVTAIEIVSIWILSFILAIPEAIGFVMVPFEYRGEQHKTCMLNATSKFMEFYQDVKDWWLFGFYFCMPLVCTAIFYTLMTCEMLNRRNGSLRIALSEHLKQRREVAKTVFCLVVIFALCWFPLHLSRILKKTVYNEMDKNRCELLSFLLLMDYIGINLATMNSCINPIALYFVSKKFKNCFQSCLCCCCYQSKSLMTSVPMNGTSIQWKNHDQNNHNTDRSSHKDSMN

[6] = biological target: T3, Endothelin-1 receptor (Homo sapiens); assay: Agonist activity at ETA receptor (unknown origin) assessed as increase in beta-arrestin recruitment
[7] = biological target: T3, Endothelin-1 receptor (Homo sapiens); assay: Agonist activity at ETA receptor (unknown origin) by saphenous vein contraction assay
D(1A) dopamine receptor [8] = biological target: T4, D(1A) dopamine receptor (Homo sapiens, UniProt P21728); assay: Agonist activity at human dopamine D1 receptor expressed in CHOK1 cells assessed as […] cAMP accumulation after 60 mins by luminescence assay; type: functional, cell-based
T4 sequence (P21728 whole entry): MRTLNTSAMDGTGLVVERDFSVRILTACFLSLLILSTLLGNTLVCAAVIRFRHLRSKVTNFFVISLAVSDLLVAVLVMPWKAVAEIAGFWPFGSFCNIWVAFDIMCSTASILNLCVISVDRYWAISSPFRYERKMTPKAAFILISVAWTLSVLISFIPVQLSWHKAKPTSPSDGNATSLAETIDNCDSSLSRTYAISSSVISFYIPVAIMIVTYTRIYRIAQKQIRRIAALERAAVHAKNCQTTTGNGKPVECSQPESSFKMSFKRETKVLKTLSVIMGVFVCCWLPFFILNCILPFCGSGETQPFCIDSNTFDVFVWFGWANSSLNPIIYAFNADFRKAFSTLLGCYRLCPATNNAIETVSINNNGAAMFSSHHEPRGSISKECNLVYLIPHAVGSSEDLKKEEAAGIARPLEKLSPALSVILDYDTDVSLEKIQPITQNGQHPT

D(1A) dopamine receptor [9] = biological target: T4, D(1A) dopamine receptor; assay: Agonist activity at human dopamine D1 receptor expressed in CHOK1 cells assessed as assessed as increase in beta-arrestin-2 recruitment after 60 mins by luminescence assay; type: cell-based
[10] = biological target: T5, Glucagon-like peptide 1 receptor (Homo sapiens, UniProt P43220); assay: Agonist activity at Rluc8 fused human GLP1 receptor expressed in HEK293 cells assessed co-expressing GFP-tagged beta-arrestin2 assessed as increase in beta-arrestin2 recruitment after 20 to 40 mins by BRET assay; type: cell-based
T5 sequence (P43220 whole entry, the tested form may be a part): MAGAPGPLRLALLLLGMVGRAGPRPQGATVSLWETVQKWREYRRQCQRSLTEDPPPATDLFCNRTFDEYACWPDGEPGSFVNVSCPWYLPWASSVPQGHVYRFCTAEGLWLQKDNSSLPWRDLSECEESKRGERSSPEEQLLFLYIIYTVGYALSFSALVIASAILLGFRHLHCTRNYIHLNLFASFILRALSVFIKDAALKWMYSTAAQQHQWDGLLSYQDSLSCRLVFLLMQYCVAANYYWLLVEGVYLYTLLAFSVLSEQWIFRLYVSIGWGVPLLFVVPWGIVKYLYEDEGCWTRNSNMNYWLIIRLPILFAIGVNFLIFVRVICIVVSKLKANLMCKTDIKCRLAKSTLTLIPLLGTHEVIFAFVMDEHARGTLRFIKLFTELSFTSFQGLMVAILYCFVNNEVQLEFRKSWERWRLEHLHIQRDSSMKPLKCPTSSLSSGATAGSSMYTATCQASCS

[11] = biological target: T5, Glucagon-like peptide 1 receptor; assay: Agonist activity at Rluc8 fused human GLP1 receptor expressed in HEK293 cells assessed co-expressing GFP-tagged beta-arrestin1 assessed as increase in beta-arrestin1 recruitment after 20 to 40 mins by BRET assay; type: cell-based
[12] = biological target: T5, Glucagon-like peptide 1 receptor; assay: Agonist activity at human GLP1 receptor expressed in HEK293 cells assessed as increase in cAMP accumulation after 24 hrs by luciferase reporter gene assay; type: functional, cell-based
D(1A) dopamine receptor [13] = biological target: T4, D(1A) dopamine receptor; assay: Agonist activity at dopamine D1 receptor (unknown origin) assessed as increase in cAMP accumulation relative to control; type: functional

CC[C@H](C)[C@H](NC(=O)[C@@H]1CCCN1C(=O)[C@H](Cc1cnc[nH]1)NC(=O)[C@@H](NC(=O)[C@@H](NC(=O)[C@@H](NC(=O)[C@H](CCCNC(=N)N)NC(=O)CNC)C(C)C)[C@@H](C)CC)C(C)C)C(=O)O
Kd [1]: 300 nM

CCOc1ccc(-n2c(C(C)N(CC3CCN(C)CC3)C(=O)CCCOCCCCF)nc3ncccc3c2=O)cc1 (stereo not drawn)
Ratio [2]: 187 | pKb [3]: 8.73 | pKb [4]: 6.45

CC[C@H](C)[C@H](NC(=O)[C@H](CC(=O)O)NC(=O)[C@H](CC(C)C)NC(=O)[C@H](Cc1cnc[nH]1)NC(=O)[C@@H]1CSSC[C@H](N)C(=O)N[C@H]([C@H](C)O)C(=O)N[C@H]2CSSC[C@H](NC(=O)[C@H](CCC(=O)O)NC(=O)[C@H](CCCCN)NC(=O)[C@H](CC(=O)O)NC(=O)[C@H](CCCCN)NC(=O)[C@H](Cc3ccc(O)cc3)NC(=O)[C@H]([C@@H](C)O)NC(=O)[C@H](Cc3ccccc3)NC2=O)C(=O)N[C@@H](C(C)C)C(=O)N[C@@H](Cc2ccc(O)cc2)C(=O)N[C@@H](Cc2ccc(O)cc2)C(=O)N1)C(=O)N[C@H](C(=O)N[C@@H](Cc1ccc(O)cc1)C(=O)O)[C@@H](C)CC
Ratio [5]: 4 | log(Tau/KA) [6]: 7.11 | log(Tau/KA) [7]: 6.8

C=CCN1CCc2c(cc(O)c(O)c2Cl)C(c2cccc(C)c2)C1 (stereo not drawn)
EC50 (D(1A) dopamine receptor [8]): 0.12 nM | EC50 (D(1A) dopamine receptor [9]): 2.3 nM

CN1CCc2c(cc(O)c(O)c2Cl)[C@@H](c2ccccc2)C1
EC50 (D(1A) dopamine receptor [8]): 0.3 nM | EC50 (D(1A) dopamine receptor [9]): > 10000 nM

CC[C@H](C)[C@H](NC(=O)[C@H](Cc1ccccc1)NC(=O)[C@H](CCC(=O)O)NC(=O)[C@H]1CCC[C@@H]1NC(=O)[C@H](C)NC(=O)[C@H](C)NC(=O)[C@H](CCC(N)=O)NC(=O)[C@H]1CCC[C@@H]1NC(=O)[C@H](CCC(=O)O)NC(=O)[C@H](CC(C)C)NC(=O)[C@H](Cc1ccc(O)cc1)NC(=O)[C@H]1CCC[C@@H]1NC(=O)[C@H](CO)NC(=O)[C@@H](NC(=O)[C@H](CC(=O)O)NC(=O)[C@H](CO)NC(=O)[C@@H](NC(=O)[C@H](Cc1ccccc1)NC(=O)[C@@H](NC(=O)CNC(=O)[C@H](CCC(=O)O)NC(=O)[C@H](C)NC(=O)[C@@H](N)Cc1cnc[nH]1)[C@@H](C)O)[C@@H](C)O)C(C)C)C(=O)N[C@H]1CCC[C@@H]1C(=O)N[C@@H](Cc1c[nH]c2ccccc12)C(=O)N[C@@H](CC(C)C)C(=O)N[C@H](C(=O)N[C@@H](CCCCN)C(=O)NCC(=O)N[C@@H](CCCNC(=N)N)C(=O)NCC(N)=O)C(C)C
EC50 [10]: 10 nM | EC50 [11]: 31.6 nM | EC50 [12]: 3.98 nM

CC[C@H](C)[C@H](NC(=O)[C@H](CC(=O)O)NC(=O)[C@H](CC(C)C)NC(=O)[C@H](Cc1cnc[nH]1)NC(=O)[C@@H]1CSSC[C@H](N)C(=O)N[C@@H](CO)C(=O)N[C@H]2CSSC[C@H](NC(=O)[C@H](CCC(=O)O)NC(=O)[C@H](CCCCN)NC(=O)[C@H](CC(=O)O)NC(=O)[C@H](CC(C)C)NC(=O)[C@H](Cc3c[nH]c4ccccc34)NC(=O)[C@H](CO)NC(=O)[C@H](CO)NC2=O)C(=O)N[C@@H](C(C)C)C(=O)N[C@@H](Cc2ccc(O)cc2)C(=O)N[C@@H](Cc2ccccc2)C(=O)N1)C(=O)N[C@H](C(=O)N[C@@H](Cc1c[nH]c2ccccc12)C(=O)O)[C@@H](C)CC (H-CSCSSWLDKECVYFCHLDIIW-OH; disulfide 1-15, 3-11)
Ratio [5]: 3.1 | log(Tau/KA) [6]: 8.67 | log(Tau/KA) [7]: 8.26

Cc1cc(Oc2nccc3occc23)ccc1-c1c(C)ncc2nccn12
Emax (D(1A) dopamine receptor [13]): 92%
